Columns and labels:
Test in all cases: combination Emax (second highest fraction inhibited in the dose matrix, 72 h); higher = more inhibition; extreme values may be limits of the assay
[1] = system: 23132-87 (Gastric Carcinoma)
How it was run: (§1)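 Cell lines grown in DMEM/F12 or RPMI with 10% FBS were plated in 1536-well plates and held 24 hours at 37°C, 5% CO2 before 72 hours of exposure to two-drug dose matrices, with DMSO typically at 0.2%. CellTiter-Glo 2.0 luminescence gave viability, which was converted to inhibition. Vehicle wells were set to 0 and blank wells to 1. Combination Emax is the second-highest inhibition in the matrix, and Bliss excess is the observed combination effect minus the expected EA + EB − EA·EB, where EA and EB are the single-agent effects.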

[2] = system: CAL-120 (Breast Carcinoma)
How it was run: as §1

[3] = system: FADU (Head and Neck Carcinoma)
How it was run: as §1

[4] = system: GP5d (Colorectal Carcinoma)
How it was run: as §1

[5] = system: HEC-1 (Endometrial Carcinoma)
How it was run: as §1

[6] = system: HSC-39 (Gastric Carcinoma)
How it was run: as §1

IST-MES1 (Mesothelioma) = system: IST-MES1 (Mesothelioma)
How it was run: as §1

[7] = system: KE-37 (T-Lymphoblastic Leukemia)
How it was run: as §1

[8] = system: LK-2 (Squamous Cell Lung Carcinoma)
How it was run: as §1

[9] = system: MFE-280 (Endometrial Carcinoma)
How it was run: as §1

[10] = system: MKN45 (Gastric Carcinoma)
How it was run: as §1

[11] = system: NCI-H2342 (Lung Adenocarcinoma)
How it was run: as §1

[12] = system: PC-3_[JPC-3] (Lung Adenocarcinoma)
How it was run: as §1

[13] = system: PSN1 (Pancreatic Carcinoma)
How it was run: as §1

[14] = system: RCM-1 (Colorectal Carcinoma)
How it was run: as §1

[15] = system: REH (B-Lymphoblastic Leukemia)
How it was run: as §1

[16] = system: RERF-GC-1B (Gastric Carcinoma)
How it was run: as §1

[17] = system: RERF-LC-Sq1 (Squamous Cell Lung Carcinoma)
How it was run: as §1

SF268 (Low Grade Glioma) = system: SF268 (Low Grade Glioma)
How it was run: as §1

[18] = system: VAL (B-Cell Non-Hodgkin's Lymphoma)
How it was run: as §1

Structure (SMILES) | combination Emax [1] | combination Emax [2] | combination Emax [3] | combination Emax [4] | combination Emax [5] | combination Emax [6] | combination Emax (IST-MES1 (Mesothelioma)) | combination Emax [7] | combination Emax [8] | combination Emax [9] | combination Emax [10] | combination Emax [11] | combination Emax [12] | combination Emax [13] | combination Emax [14] | combination Emax [15] | combination Emax [16] | combination Emax [17] | combination Emax (SF268 (Low Grade Glioma)) | combination Emax [18]
Cn1cnc2c(F)c(Nc3ccc(Br)cc3Cl)c(C(=O)NOCCO)cc21 [Selumetinib] + C[C@@H]1COCCN1C2=NC(=NC(=C2)C3(CC3)[S@](=N)(=O)C)C4=C5C=CNC5=NC=C4 [AZD6738] (first compound max 10 µM, 7x7, partner max 10 µM) | 0.429 | 0.436 | 0.404 | 0.861 | 0.298 | 0.994 | 0.269 | 0.959 | 0.39 | 0.151 | 0.782 | 0.483 | 0.309 | 0.736 | 0.656 | 0.684 | 0.522 | 0.786 | 0.49 | 0.746
Cc1c2c(nn1C)CSCc1cc(n(C)n1)CSc1cc(c3ccccc3c1)OCCCc1c(C(=O)O)n(C)c3c-2c(Cl)ccc13 [AZD5991] + Cc1cc2ncnn2cc1Nc1ncc2c(n1)n(C1CCOCC1)c(=O)n2C [AZD7648] (first compound max 1 µM, 7x7, partner max 10 µM) | 0.887 | 0.252 | 0.963 | 0.824 | 0.18 | 1 | 0.249 | 0.975 | 0.198 | 0.437 | 0.504 | 0.317 | 0.289 | 0.406 | 0.241 | 0.8 | 0.987 | 0.37 | 0.243 | 0.744
CCN(CCO)CCCOc1ccc2c(Nc3cc(CC(=O)Nc4cccc(F)c4)[nH]n3)ncnc2c1 [AZD2811] + C=CCn1c(=O)c2cnc(Nc3ccc(N4CCN(C)CC4)cc3)nc2n1-c1cccc(C(C)(C)O)n1 [AZD1775] (first compound max 1 µM, partner max 1 µM) | 0.656 | 0.368 | 0.608 | 0.735 | 0.141 | 0.985 | 0.27 | 1 | 0.887 | 0.521 | 0.631 | 0.262 | 0.413 | 0.401 | 0.461 | 0.741 | 0.816 | 0.68 | 0.245 | 0.844
Cc1c2c(nn1C)CSCc1cc(n(C)n1)CSc1cc(c3ccccc3c1)OCCCc1c(C(=O)O)n(C)c3c-2c(Cl)ccc13 [AZD5991] + C=CCn1c(=O)c2cnc(Nc3ccc(N4CCN(C)CC4)cc3)nc2n1-c1cccc(C(C)(C)O)n1 [AZD1775] (first compound max 1 µM, partner max 1 µM) | 0.96 | 0.405 | 0.963 | 0.977 | 0.247 | 1 | 0.31 | 0.995 | 0.88 | 0.469 | 0.826 | 0.306 | 0.466 | 0.475 | 0.536 | 0.877 | 1 | 0.785 | 0.577 | 0.887
NC1(C(=O)N[C@@H](CCO)c2ccc(Cl)cc2)CCN(c2ncnc3[nH]ccc23)CC1 [Capivasertib] + CC(C)n1c(=O)n(C)c2cnc3cc(F)c(-c4ccc(OCCCN5CCCCC5)nc4)cc3c21 [AZD1390] (first compound max 10 µM, 7x7, partner max 0.3 µM) | 0.165 | 0.454 | 0.221 | 0.669 | 0.145 | 0.432 | 0.249 | 0.72 | 0.0982 | 0.583 | 0.432 | 0.284 | 0.176 | 0.256 | 0.253 | 0.461 | 0.433 | 0.841 | 0.272 | 0.609
Cc1c2c(nn1C)CSCc1cc(n(C)n1)CSc1cc(c3ccccc3c1)OCCCc1c(C(=O)O)n(C)c3c-2c(Cl)ccc13 [AZD5991] + CN(C)CCCOc1ccc(-c2ccc3ncc4c(c3c2)n(C2CCOCC2)c(=O)n4C)cn1 [AZD0156] (first compound max 1 µM, 7x7, partner max 1 µM) | 0.934 | 0.171 | 0.972 | 0.817 | 0.195 | 1 | 0.191 | 0.939 | 0.183 | 0.38 | 0.356 | 0.278 | 0.279 | 0.397 | 0.232 | 0.694 | 0.978 | 0.364 | 0.3 | 0.657
NC1(C(=O)N[C@@H](CCO)c2ccc(Cl)cc2)CCN(c2ncnc3[nH]ccc23)CC1 [Capivasertib] + CCN(CCO)CCCOc1ccc2c(Nc3cc(CC(=O)Nc4cccc(F)c4)[nH]n3)ncnc2c1 [AZD2811] (first compound max 10 µM, 7x7, partner max 1 µM) | 0.224 | 0.49 | 0.36 | 0.718 | 0.212 | 0.948 | 0.322 | 1 | 0.925 | 0.661 | 0.486 | 0.482 | 0.344 | 0.371 | 0.197 | 0.848 | 0.542 | 0.892 | 0.416 | 0.761
CC1(C)CCC(CN2CCN(c3ccc(C(=O)NS(=O)(=O)c4ccc(NCC5CCOCC5)c([N+](=O)[O-])c4)c(Oc4cnc5[nH]ccc5c4)c3)CC2)=C(c2ccc(Cl)cc2)C1 [Venetoclax] + CN(C)CCCOc1ccc(-c2ccc3ncc4c(c3c2)n(C2CCOCC2)c(=O)n4C)cn1 [AZD0156] (first compound max 1 µM, 7x7, partner max 1 µM) | 0.157 | 0.167 | 0.196 | 0.279 | 0.163 | 0.926 | 0.0799 | 0.196 | 0.321 | 0.423 | 0.688 | 0.203 | 0.25 | 0.3 | 0.45 | 0.908 | 0.242 | 0.229 | 0.298 | 1
C[C@@H](c1ccc2nccn2c1)n1nnc2ncc(-c3cnn(C)c3)nc21 [Savolitinib] + Cc1c2c(nn1C)CSCc1cc(n(C)n1)CSc1cc(c3ccccc3c1)OCCCc1c(C(=O)O)n(C)c3c-2c(Cl)ccc13 [AZD5991] (first compound max 1 µM, 7x7, partner max 1 µM) | 0.179 | 0.112 | 0.546 | 0.861 | 0.107 | 0.99 | 0.189 | 0.159 | 0.202 | 0.116 | 0.839 | 0.321 | 0.284 | 0.174 | 0.114 | 0.806 | 0.788 | 0.173 | 0.167 | 0.564
COc1cccc(OCCCN)c1-c1cc(Nc2cnc(C#N)cn2)n[nH]1 [Prexasertib] + Cc1cc2ncnn2cc1Nc1ncc2c(n1)n(C1CCOCC1)c(=O)n2C [AZD7648] (first compound max 1 µM, 7x7, partner max 10 µM) | 0.939 | 0.512 | 0.851 | 0.964 | 0.53 | 1 | 0.355 | 1 | 0.755 | 0.405 | 0.811 | 0.309 | 0.324 | 0.461 | 0.796 | 0.992 | 0.552 | 0.855 | 0.48 | 0.932
C=CCn1c(=O)c2cnc(Nc3ccc(N4CCN(C)CC4)cc3)nc2n1-c1cccc(C(C)(C)O)n1 [AZD1775] + O=C(c1cc(Cc2n[nH]c(=O)c3ccccc23)ccc1F)N1CCN(C(=O)C2CC2)CC1 [Olaparib] (first compound max 1 µM, partner max 10 µM) | 0.605 | 0.396 | 0.591 | 0.713 | 0.119 | 0.988 | 0.334 | 1 | 0.914 | 0.601 | 0.775 | 0.229 | 0.458 | 0.478 | 0.518 | 0.835 | 0.693 | 0.675 | 0.251 | 0.816
COc1nnc2ccc(N3CCC(c4ccc(OCCN5CCN(C)C(=O)[C@H]5C)cc4)CC3)nn12 [AZD5153] + C[C@@H]1COCCN1C2=NC(=NC(=C2)C3(CC3)[S@](=N)(=O)C)C4=C5C=CNC5=NC=C4 [AZD6738] (first compound max 1 µM, 7x7, partner max 10 µM) | 0.594 | 0.589 | 0.642 | 0.855 | 0.884 | 1 | 0.644 | 0.978 | 0.784 | 0.425 | 0.782 | 0.673 | 0.5 | 0.586 | 0.674 | 0.96 | 0.796 | 0.801 | 0.773 | 0.835
CC1(C)CCC(CN2CCN(c3ccc(C(=O)NS(=O)(=O)c4ccc(NCC5CCOCC5)c([N+](=O)[O-])c4)c(Oc4cnc5[nH]ccc5c4)c3)CC2)=C(c2ccc(Cl)cc2)C1 [Venetoclax] + Cc1cc2ncnn2cc1Nc1ncc2c(n1)n(C1CCOCC1)c(=O)n2C [AZD7648] (first compound max 1 µM, 7x7, partner max 10 µM) | 0.152 | 0.125 | 0.237 | 0.374 | 0.167 | 0.936 | 0.195 | 0.404 | 0.266 | 0.319 | 0.588 | 0.214 | 0.297 | 0.37 | 0.362 | 0.875 | 0.28 | 0.229 | 0.268 | 1

Reference: the supplement of paper PMC11061612
